The results in this text go back to ChEMBL document CHEMBL1147144, “Novel styrylpyridines as probes for SPECT imaging of amyloid plaques” (J Med Chem, 2007).

For the assay, the target named is Amyloid-beta precursor protein (Homo sapiens, UniProt P05067). The assay is described as follows: Displacement of […] from Abeta peptide plaques in Alzheimer's disease patient brain.
Chain of Amyloid-beta precursor protein (P05067 whole entry): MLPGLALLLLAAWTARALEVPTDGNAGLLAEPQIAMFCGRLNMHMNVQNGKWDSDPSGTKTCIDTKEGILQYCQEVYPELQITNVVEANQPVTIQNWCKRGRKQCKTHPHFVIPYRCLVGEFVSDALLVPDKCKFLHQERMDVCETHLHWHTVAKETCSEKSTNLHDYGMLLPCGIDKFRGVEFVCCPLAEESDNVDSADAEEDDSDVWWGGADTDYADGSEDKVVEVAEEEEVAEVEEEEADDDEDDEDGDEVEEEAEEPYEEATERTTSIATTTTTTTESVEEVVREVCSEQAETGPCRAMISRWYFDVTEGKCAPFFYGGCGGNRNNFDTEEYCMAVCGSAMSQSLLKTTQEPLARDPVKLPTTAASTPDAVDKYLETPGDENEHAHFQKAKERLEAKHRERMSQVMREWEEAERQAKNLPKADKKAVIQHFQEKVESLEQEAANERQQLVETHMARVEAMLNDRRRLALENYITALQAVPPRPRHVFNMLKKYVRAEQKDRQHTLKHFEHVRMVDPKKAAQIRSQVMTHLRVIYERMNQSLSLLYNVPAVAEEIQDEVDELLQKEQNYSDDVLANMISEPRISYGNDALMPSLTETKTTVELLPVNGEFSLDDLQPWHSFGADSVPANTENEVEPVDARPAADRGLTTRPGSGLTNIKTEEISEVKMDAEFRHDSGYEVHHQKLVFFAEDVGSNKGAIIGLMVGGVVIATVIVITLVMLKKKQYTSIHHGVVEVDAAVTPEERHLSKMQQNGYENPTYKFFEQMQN

As usually defined, the Ki is a measure of affinity in units of concentration, obtained from inhibition or displacement. A higher Ki goes with weaker binding. With `CNc1ccc(/C=C/c2cnc(OCCOCCOCCF)c(Br)c2)cc1`, the affinity, expressed as Ki, was 4.5 nM. `Oc1ccc(/C=C/c2cnc(OCCOCCOCCF)c(I)c2)cc1` showed a Ki of 21 nM. The value for `CNc1ccc(/C=C/c2cnc(OCCO)c(I)c2)cc1` was 8.5 nM; that for `CN(C)c1ccc(/C=C/c2cnc(OCCOCCOCCF)c(I)c2)cc1` was 7.5 nM. The value for `OCCOc1ncc(C=Cc2ccc(O)cc2)cc1Br` was 6.8 nM; that for `OCCOc1ncc(/C=C/c2ccc(O)cc2)cc1I` was 15.5 nM; that for `Oc1ccc(/C=C/c2cnc(OCCOCCOCCF)c(Br)c2)cc1` was 14.2 nM. As for `CN(C)c1ccc(/C=C/c2cnc(OCCO)c(Br)c2)cc1`, the figure is 3.6 nM.
